pEC50: −log10 of the molar value. Where two headings read alike, the source gives them in different places. Each block holds one molecule with its values, some of them ahead of it.
Tests used:
T-47D = experiment: Caspase cascade activation / apoptosis induction assay (N-(Ac-DEVD)-N'-ethoxycarbonyl-R110 substrate) in T-47D cells; type: cell-based, Human; settings: for Caspase activity (Ratio): ratio of net RFU to control
Description: (§1) Human breast cancer cell lines T-47D and ZR-75-1 were grown according to media component mixtures designated by American Type Culture Collection+10% FCS (Invitrogen Corporation), in a 5% CO2-95% humidity incubator at 37° C. T-47D and ZR-75-1 cells were maintained at a cell density between 30 and 80% confluency and for HL-60 at a cell density of 0.1 to 0.6×10^6 cells/ml. Cells were harvested at 600×g and resuspended at 0.65×10^6 cells/mL into appropriate media+10% FCS. An aliquot of 45 μl of cells was added to a well of a 96-well microtiter plate containing 5 μl of a 10% DMSO in RPMI-1640 media solution containing 1.6 to 100 μM of gambogic acid or other test compound (0.16 to 10 μM final). An aliquot of 45 μl of cells was added to a well of a 96-well microtiter plate containing […] of a 10% DMSO in RPMI-1640 media solution without test compound as the control sample. The samples were mixed by agitation and then incubated at 37° C. for 24 h in a 5% CO2-95% humidity incubator. After incubation, the samples were removed from the incubator and 50 μl of a solution containing 20 μM of N-(Ac-DEVD)-N′-ethoxycarbonyl-R110 fluorogenic substrate SEQ ID NO:1 (Cytovia, Inc.; U.S. Pat. No. 6,335,429), 20% sucrose (Sigma), 20 mM DTT (Sigma), 200 mM NaCl (Sigma), 40 mM Na PIPES buffer pH 7.2 (Sigma), and 500 μg/mL lysolecithin (Calbiochem) was added. The samples were mixed by agitation and incubated at room temperature. Using a fluorescent plate reader (Model 1420 Wallac Instruments), an initial reading (T=0) was made approximately 1–2 min after addition of the substrate solution, employing excitation at 485 nm and emission at 530 nm, to determine the background fluorescence of the control sample. After approximately 3 h of incubation, the samples were read for fluorescence as above (T=3 h).
(§2) The Relative Fluorescence Unit values (RFU) were used to calculate the sample readings as follows: RFU(T=3h)−Control RFU(T=0)=Net RFU(T=3h)
(§3) The activity of caspase cascade activation was determined by the ratio of the net RFU value for derivatives of gambogic acid to that of control samples. The EC50 (nM) was determined by a sigmoidal dose-response calculation (Prism 2.0, GraphPad Software Inc.).
Methyl 9,10-dihydro-10-morpholinyl-gambogate and gambogic acid were assayed as described in Example 28 in T47D cells. The samples of cells and testing compound were incubated for 5 h and 24 h, respectively. Table II summarizes the caspase activity (Ratio) and potency (EC50) of methyl 9,10-dihydro-10-morpholinyl-gambogate (compound B) in the 5 h and 24 h assays, in comparison with that of gambogic acid (compound A).

ICR (CD-1) mice = experiment: Maximum tolerated dose (MTD) in mice, I.V.; type: in vivo; settings: mice
Description: For acute toxicity studies, 3 ICR (CD-1) mice were used per each dose group. Animals were given a single bolus injection in the tail vein with approximately 100 μl volume of compound formulation or vehicle formulation. Mice body weights were measured daily along with daily observation for clinical abnormalities. The maximum tolerated dose (MTD) was defined as the dose that results in less than 10% decrease in body weight with no clinical abnormalities.
For multiple dose studies, the animals were dosed once a day for 5 days.
Table IV summarizes the MTD of gambogic acid and methyl 9,10-dihydro-10-morpholinyl-gambogate in mice by I.V. administration.

[1] = Pharmacokinetic studies in mice (plasma, LC/MS/MS); type: in vivo, ICR mice
Description: ICR mice were administered a single dose of drug into the tail vein. At each time point, 3 animals were sacrificed and the blood was withdrawn by cardiac puncture. The blood cells were spun down and the plasma was collected and frozen immediately in liquid nitrogen. For sample processing, the plasma was thawed and extraction solvent was added along with an internal standard to assess recoveries. The samples were vortexed followed by centrifugation, and the extraction solution was collected and subjected to LC/MS/MS analysis to identify and quantitate the compound plasma concentration. The levels of compound from the three animals at each time point were averaged and the pharmacokinetic parameters calculated using WinNonLin program. Table V summarized the major PK parameters.

ZR75-1 (Breast cancer) = experiment: Efficacy in human tumor xenograft mouse model ZR75-1; type: in vivo, human tumor in CD1 nu/nu mice; settings: ZR75-1 xenograft, 5 mg/kg, every other day, I.V.
Description: (§4) CD1 nu/nu mice were used. Viable tumor bits of transplantable human xenografts approximately 50 mg of trocar or cultured human tumor cells (nx106 cells?) were implanted subcutaneously into the flank region of mice and tumors were allowed to grow to the desired average size of 100 mg. The mice were measured for tumor size and those within the accepted tumor range of 75–125 mg, were randomized into control and treatment groups with 8–9 mice per group. Treatment was initiated on these groups which have an average starting tumor size of 100 mg. The control group was injected with the vehicle used to dissolve the drug. Injections were I.V. via the tail vein. Tumor measurements were taken every other day along with weights of animals and all animals were observed daily for survival. Tumor size was calculated by the equation of: Tumor volume=(length×width^2)/2.

[2] = test system: human tumor xenograft models; experiment: Efficacy studies in human tumor xenograft models (text summary, model not named); type: in vivo, human tumor in nu/nu mice
Description: as §4

HeLa cells = settings: cited from earlier work
HEL cells = settings: cited from earlier work
KB cell line = settings: cited from earlier work
KB-V1 cell line = settings: cited from earlier work
ZR-75-1 = experiment: Caspase cascade activation / apoptosis induction assay (N-(Ac-DEVD)-N'-ethoxycarbonyl-R110 substrate) in ZR-75-1 cells; type: cell-based, Human; settings: ZR-75-1, 24 h incubation; for Caspase activity (Ratio): ratio of net RFU to control; for pEC50: read-out: Caspase potency EC50
Description: as §1, §2, §3

[3] = Conversion of methyl 9,10-dihydro-10-morpholinyl-gambogate to methyl gambogate in biological media (HPLC); type: physicochemical; settings: solution of compound B 5 mg/ml in 87.5% RPMI 1640, 37° C., HPLC peak area
Description: A solution of methyl 9,10-dihydro-10-morpholinyl-gambogate in 87.5% RPMI 1640 biological Media (Invitrogen Corporation, Carlsbad, Calif.), 5.6% EtOH, 1.3% DMSO, and 5.6% Cremophor EL at a concentration of 5 mg/ml was stored at 37° C. The amount of methyl 9,10-dihydro-10-morpholinyl-gambogate (compound B) and methyl gambogate (compound C) was measured by integration of the peak area. The HPLC was run in the Beckman System Gold with 32 Karate software under the following conditions: […]

[4] = T-47D, 24 h incubation, read-out: Caspase potency EC50

pEC50 (T-47D; [4]): 6.23
pEC50 (ZR-75-1): 5.86
SMILES: CC(C)=CCCC1(C)C=Cc2c(O)c3c(c(CC=C(C)C)c2O1)OC12C(C3=O)C(N3CCOCC3)C3CC1C(C)(C)OC2(C/C=C(/C)C(=O)N1CCOCC1)C3=O (stereo not shown) [Example 10, 9,10-Dihydro-10-morpholinyl-gambogyl Morpholine]
Caspase activity (Ratio) (T-47D; T-47D, 24 h incubation): 23
Caspase activity (Ratio) (ZR-75-1): 7.0

pEC50 (T-47D; [4]): 6.15
pEC50 (ZR-75-1): 5.84
SMILES: CC(C)=CCCC1(C)C=Cc2c(O)c3c(c(CC=C(C)C)c2O1)OC12C(C3=O)C(NCCN3CCOCC3)C3CC1C(C)(C)OC2(C/C=C(/C)C(=O)N1CCN(C)CC1)C3=O (stereo not shown) [Example 6, 9,10-Dihydro-10-[2-(morpholinyl)ethylamino]-gambogyl (N-Methylpiperazine)]
Caspase activity (Ratio) (T-47D; T-47D, 24 h incubation): 17
Caspase activity (Ratio) (ZR-75-1): 4.1

pEC50 (T-47D; [4]): 5.87
pEC50 (ZR-75-1): 5.40
SMILES: CC(C)=CCCC1(C)C=Cc2c(O)c3c(c(CC=C(C)C)c2O1)OC12C(C3=O)C(N3CCOCC3)C3CC1C(C)(C)OC2(C/C=C(/C)C(=O)N1CCN(C)CC1)C3=O (stereo not shown) [Example 4, 9,10-Dihydro-10-morpholinyl-gambogyl (N-Methylpiperazine)]
Caspase activity (Ratio) (T-47D; T-47D, 24 h incubation): 19
Caspase activity (Ratio) (ZR-75-1): 18

pEC50 (T-47D; [4]): 6.22
pEC50 (ZR-75-1): < 5.00
SMILES: CC(C)=CCCC1(C)C=Cc2c(O)c3c(c(CC=C(C)C)c2O1)OC12C(C3=O)C(N3CCN(c4ccccn4)CC3)C3CC1C(C)(C)OC2(C/C=C(/C)C(=O)N1CCN(C)CC1)C3=O (stereo not shown) [Example 7, 9,10-Dihydro-10-[4-(2-pyridyl)piperazinyl]-gambogyl (N-Methylpiperazine)]
Caspase activity (Ratio) (T-47D; T-47D, 24 h incubation): 2.2
Caspase activity (Ratio) (ZR-75-1): 1.6

pEC50 (T-47D; [4]): 6.07
pEC50 (ZR-75-1): 5.63
SMILES: CC(C)=CCCC1(C)C=Cc2c(O)c3c(c(CC=C(C)C)c2O1)OC12C(C3=O)C(N3CCCCC3)C3CC1C(C)(C)OC2(C/C=C(/C)C(=O)N1CCN(C)CC1)C3=O (stereo not shown) [Example 5, 9,10-Dihydro-10-piperidinyl-gambogyl (N-Methylpiperazine)]
Caspase activity (Ratio) (T-47D; T-47D, 24 h incubation): 23
Caspase activity (Ratio) (ZR-75-1): 5.3

Continued, molecule first:

SMILES: CC(C)=CCC[C@]1(C)C=Cc2c(O)c3c(c(CC=C(C)C)c2O1)O[C@]12C(=C[C@@H]4C[C@H]1C(C)(C)O[C@@]2(C/C=C(/C)C(=O)O)C4=O)C3=O [Compound A, Gambogic acid]
Activity in the caspase activation / apoptosis induction assay (in words), 5 h (T-47D; T47D cells, 5 h assay): active
Caspase activity (Ratio), 5 h (T-47D; T47D cells, 5 h assay): 29.5
pEC50 (T-47D; T47D cells, 5 h assay, read-out: Caspase potency EC50, 5 h): 5.76
Activity in the caspase activation / apoptosis induction assay (in words), 24 h (T-47D; T47D cells, 24 h assay): active
Caspase activity (Ratio), 24 h (T-47D; T47D cells, 24 h assay): 12.1
pEC50 (T-47D; T47D cells, 24 h assay, read-out: Caspase potency EC50, 24 h): 6.15
Multiple Dose MTD (ICR (CD-1) mice; I.V., once a day, 5 doses): 5 mg/kg
Injection site toxicity (ICR (CD-1) mice; tail vein injection): evidence of injection site toxicity, such as tail edema
T1/2, Terminal half-life ([1]; mice, single I.V. dose 5 mg/kg): 4.8 h
AUC (0-inf), Area under the curve ([1]; mouse, in vivo, iv, 5 mg/kg): 2,700 ng-h/ml
CL, Clearance ([1]; mouse, in vivo, iv, 5 mg/kg): 30.7 mL/min/kg
Vss, Vol. of distribution ([1]; mouse, in vivo, iv, 5 mg/kg): 2.9 L/kg
% Tumor reduction (ZR75-1 (Breast cancer)): 20%
Best efficacy, tumor growth inhibition ([2]; human tumor cells s.c. in nu/nu mice, at doses that were toxic, not statistically significant): approximately 20%
Efficacy (in words) ([2]; summary of Table VI, gambogic acid at its maximal tolerable dose): did not produce significant efficacy
Cytotoxicity (HeLa cells): cytotoxic
Cytotoxicity (HEL cells): cytotoxic
Cytotoxicity (KB cell line): cytotoxic
Cytotoxicity (KB-V1 cell line): cytotoxic

SMILES: CC(C)=CCC[C@]1(C)C=Cc2c(O)c3c(c(CC=C(C)C)c2O1)O[C@]12C(=C[C@@H]4C[C@H]1C(C)(C)O[C@@]2(C/C=C(\C)C(=O)O)C4=O)C3=O [isogambogic acid]
Cytotoxicity (KB cell line): cytotoxic
Cytotoxicity (KB-V1 cell line): cytotoxic

SMILES: CC(C)=CCc1c2c(c(O)c3c1OC14C(=CC5CC1C(C)(C)OC4(C/C=C(\C)CO)C5=O)C3=O)C=CC(C)(C)O2 (stereo not shown) [isomorellinol]
Cytotoxicity (KB cell line; KB cell line): cytotoxic
Cytotoxicity (KB-V1 cell line; KB-V1 cell line): cytotoxic

SMILES: COC(=O)/C(C)=C\C[C@@]12OC(C)(C)[C@@H]3C[C@@H](C=C4C(=O)c5c(O)c6c(c(CC=C(C)C)c5O[C@]431)O[C@](C)(CCC=C(C)C)C=C6)C2=O [C, Methyl gambogate]
Amount in biological media, 0 h ([3]; 0 h): 4
Amount in biological media, 2 h ([3]; 2 h): 3
Amount in biological media, 18 h ([3]; 18 h): 26
Amount in biological media, 48 h ([3]; 48 h): 48
Amount in biological media, 90 h ([3]; 90 h): 64

SMILES: CC(C)=CCCC1(C)C=Cc2c(O)c3c(c(CC=C(C)C)c2O1)OC12C(C3=O)C(OCCN(C)C)C3CC1C(C)(C)OC2(C/C=C(/C)C(=O)N1CCN(C)CC1)C3=O (stereo not shown) [Example 9, 9,10-Dihydro-10-(2-dimethylaminoethoxy)-gambogyl (N-Methylpiperazine)]
Caspase activity (Ratio) (T-47D; T-47D, 24 h incubation): 15
pEC50 (T-47D; [4]): 5.71
Caspase activity (Ratio) (ZR-75-1): 16
pEC50 (ZR-75-1): 5.28

From patent US7176234B2, “Derivatives of gambogic acid and analogs as activators of caspases and inducers of apoptosis” (priority 2002, dated 2007)
